Test results taken from patent US20150072026A1, “Anti-inflammatory ion and uses thereof” (Yunyuan Li, priority 2013, published 2015).

Key:
[1] = system: dermatological inflammatory diseases and other inflammatory diseases or syndrome; conditions: 10 mM, topical or gargle or spray administration
pain of body = test: Topical NH4Cl in skin moisture lotion to reduce pain of body; type: in vivo, human; conditions: 10 mM in skin moisture lotion, once a day, after 2-3 days
acnes or furuncles = test: Topical NH4Cl lotion on face to prevent acnes or furuncles; type: in vivo, human; conditions: NH4+ 10 mM in skin moisture lotion, topical on face once a week
subcutaneous masses = test: Topical NH4Cl in skin moisture lotion to treat subcutaneous masses; type: in vivo, human; conditions: 10 mM in skin moisture lotion, once a day, after 2-3 days
furuncles = test: Topical NH4Cl in skin moisture lotion to treat furuncles; type: in vivo, human; conditions: 10 mM in skin moisture lotion, 3 times a day, after 2-3 days
psoriasis = test: Spray of 10 mM NH4Cl solution on psoriasis sites of patient A; type: in vivo, human; conditions: 10 mM NH4Cl spray once every 2 days
Source text: Photos were taken before and after treatments in indicated time points. FIGS. 1, 2, 3, 4 and 5 illustrated the results of the above-identified protocol used in this study.

| Structure (SMILES) | effects for dermatological inflammatory diseases (eczema, acnes, psoriasis, furuncles) and other inflammatory diseases or syndrome [1] | pain of body (pain of body) | prevention of acnes or furuncles (acnes or furuncles) | subcutaneous masses (subcutaneous masses) | furuncles (pain, red, nodule) (furuncles) | psoriasis on one hand (psoriasis; 2 months, patient A (FIG. 3)) | psoriasis on both elbows (psoriasis; 3 months, patient A (FIG. 2)) | psoriasis on the back of the body (psoriasis; 3 months, patient A (FIG. 4)) | psoriasis on both hands (psoriasis; 3 months, patient A with psoriasis for 3 years (FIG. 1)) | appearance of psoriasis on feet and both knees (psoriasis; 4 months, patient A (FIG. 5)) |
| --- | --- | --- | --- | --- | --- | --- | --- | --- | --- | --- |
| N.N.O=S(=O)(O)O [ammonium sulfate] | excellent effects |  |  |  |  |  |  |  |  |  |
| CC(=O)O.N [ammonium acetate] | excellent effects |  |  |  |  |  |  |  |  |  |
| Cl.N [NH4Cl, ammonium chloride] | excellent effects | completed stopped or significantly reduced | could prevent acnes or furuncles | masses less than 1 cm would be disappeared | furuncles were cured | cures psoriasis | cures psoriasis | cure psoriasis | cures psoriasis | improve appearance of psoriasis |
